Values joined by “and” are separate entries in the source; they are usually repeats but may differ in a detail not shown here. Equal values may be shown once.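 Growth conditions: 96-well plates. Treatment: test compound, 48 hours, 5 concentrations. Analysis: linear interpolation between bracketing concentrations; unreached endpoints set to highest concentration. Abbreviation: GI50, concentration required for 50% inhibition of growth. The concentration for full growth arrest is given as TGI.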
Assays:
Assay in all cases: growth of human tumour cells (NCI), 48 h
[1] = tested on: SN12C renal
[2] = tested on: HCT-116 colon
[3] = tested on: SF-295 CNS
[4] = tested on: UACC-257 melanoma
[5] = tested on: MDA-MB-435
[6] = tested on: CCRF-CEM leukemia
[7] = tested on: TK-10 renal
[8] = tested on: K-562 leukemia
[9] = tested on: RXF 393 renal
[10] = tested on: SF-539 CNS

| SMILES | GI50 [1] | TGI [1] | GI50 [2] | TGI [2] | GI50 [3] | TGI [3] | GI50 [4] | TGI [4] | GI50 [5] | TGI [5] | GI50 [6] | TGI [6] | GI50 [7] | TGI [7] | GI50 [8] | TGI [8] | GI50 [9] | TGI [9] | GI50 [10] | TGI [10] |
| --- | --- | --- | --- | --- | --- | --- | --- | --- | --- | --- | --- | --- | --- | --- | --- | --- | --- | --- | --- | --- |
| N#Cc1c(NC(=O)CN2CCOCC2)sc2c1CCCC2 | > 25 µM | > 25 µM | > 25 µM | > 25 µM | > 25 µM | > 25 µM | > 25 µM | > 25 µM | > 25 µM | > 25 µM | > 25 µM | > 25 µM | > 25 µM | > 25 µM | > 25 µM | > 25 µM | > 25 µM | > 25 µM | > 25 µM | > 25 µM |
| CCOC(=O)c1c(C)n2c(=O)cc(C)c3c(OC(C)=O)c(OC(C)=O)cc1c32 | 4.97 µM | 28.2 µM | 3.56 µM | 17 µM | 5.2 µM | 45.2 µM | 7.64 µM | 25.3 µM | 5.76 µM | > 53 µM | 1.44 µM | 6.45 µM | 15 µM | > 100 µM | 3.86 µM | > 37.9 µM | 3.43 µM | 15.8 µM | 4.24 µM | 21.1 µM |
| COC(=O)[C@@]1(C)CC[C@]2(C)CC[C@]3(C)C4=CC=C5C(=CC(=O)C(O)=C5C)[C@]4(C)CC[C@@]3(C)[C@@H]2C1 | 0.201 µM | 0.507 µM | 0.163 µM | 0.32 µM | 0.407 µM | 1.62 µM | 0.279 µM | 0.767 µM | 0.195 µM | 0.503 µM | 0.21 µM | 0.745 µM | 0.185 µM | 0.449 µM | 0.251 µM | 0.715 µM | 0.176 µM | 0.33 µM | 0.26 µM | 0.554 µM |
| CN(C)CCCNc1nccc(-c2c(-c3ccc(F)cc3)nn3cc(C(F)(F)F)ccc23)n1 | 15.3 µM | > 25 µM | 8.66 µM | > 25 µM | 6.91 µM | > 17.2 µM | 4.22 µM | 8.42 µM | 5.46 µM | 15.2 µM | 8.08 µM | > 25 µM | 12.9 µM | > 25 µM | 4.81 µM | 14.2 µM | 3.34 µM | 9.6 µM | 15.5 µM | > 25 µM |
| Oc1cc(O)c2c(=S)cc(-c3ccc(Cl)cc3)oc2c1 | 2.78 µM | 11.1 µM | 2.84 µM | 10.4 µM | 5.67 µM | 22.9 µM | 2.75 µM | 7.96 µM | 3.41 µM | 14 µM | 4.02 µM | > 63.1 µM | 4.08 µM | 19.1 µM | 3.48 µM | 22.3 µM | 3.15 µM | 12.5 µM | 3.31 µM | 17.1 µM |
| COc1ccc(-c2nn(-c3cccc(NC(=O)Nc4cc(C(F)(F)F)cc(C(F)(F)F)c4)c3)cc2-c2ccncc2)cc1Cl | 1.27 µM | 7.95 µM | 0.649 µM | 2.17 µM | 1.01 µM | 3.36 µM | 1.07 µM | 3.74 µM | 0.959 µM | 3.12 µM | 0.962 µM | 3.11 µM | 1.67 µM | 10.9 µM | 1.05 µM | 10 µM | 0.849 µM | 2.4 µM | 0.88 µM | 2.25 µM |
| O=C1/C(=C/c2ccccc2)CCC/C1=C\c1ccccc1 | 7.33 µM | 12.6 µM and 32.8 µM and 34.9 µM | – | 5.86 µM and 3.09 µM and 3.33 µM | 7.49 µM | 13.6 µM and 26.5 µM | 6.3 µM and 13.1 µM | 11.7 µM and 39.8 µM and 33.3 µM | 2.71 µM | 11 µM and 14.1 µM | 18.5 µM | 36.5 µM and 51.1 µM and > 100 µM | 6.12 µM | 11.9 µM and 33.2 µM and 40 µM | 20.3 µM and 4.56 µM | 36.5 µM and 32.9 µM and > 100 µM | 7.73 µM and 4.27 µM | 13.4 µM and 32.3 µM and 17.8 µM | 6.9 µM and 22.3 µM | 12.2 µM and 32.7 µM and 53.4 µM |
| C=CCN(/C=C1\C(=O)O[C@H](COC)[C@@]2(C)C1=C(O)C(=O)C1=C2[C@H](OC(C)=O)C[C@]2(C)C(=O)CC[C@@H]12)CC=C | 1.99 µM and 1.07 µM | 20 µM and > 100 µM | 3.91 µM and 1.76 µM | 20 µM and > 100 µM | 0.0935 µM and 0.205 µM | 4.82 µM and 9.89 µM | 9.18 µM and 2.26 µM | 20 µM and > 100 µM | 1.29 µM and 3.63 µM | 13.5 µM and 46.9 µM | 11.1 µM and 1.41 µM | 20 µM and > 100 µM | 0.128 µM and 0.437 µM | – | 15.1 µM and 12 µM | 20 µM and > 100 µM | 0.00922 µM and 0.0149 µM | 0.261 µM and 0.196 µM | 3.6 µM and 0.524 µM | 20 µM and 6.41 µM |
| CC[CH2][Sn]([Cl])([Cl])[CH2]CC | 7.08 µM | 20.2 µM | 13.1 µM | 25.8 µM | 17.2 µM | 33.4 µM | 4.59 µM | 19.2 µM | 12.5 µM | 26.9 µM | 1.24 µM | > 100 µM | 3.16 µM | 11.1 µM | 3.33 µM | > 100 µM | 6.96 µM | 20.6 µM | 11.1 µM | 25 µM |
| O=C(CCCc1ccccn1)c1ccccc1 | – | > 100 µM | – | > 100 µM | – | > 100 µM | – | > 100 µM | – | > 100 µM | – | > 100 µM | – | > 100 µM | – | > 100 µM | – | > 100 µM | – | > 100 µM |
| CNC(C)C(=O)N[C@H](C(=O)N1CCC[C@@H]1CN(CCc1ccccc1)C(=O)C(F)(F)F)[C@H](C)OCC#CC#CCO[C@H](C)[C@H](NC(=O)[C@H](C)NC)C(=O)N1CCC[C@H]1CN(CCc1ccccc1)C(=O)C(F)(F)F (stereo partly specified) | 1.78 µM | 3.32 µM | 1.43 µM | 2.78 µM | 1.31 µM | 2.84 µM | 1.28 µM | 2.72 µM | 1.63 µM | 3.46 µM | 0.602 µM | 2.54 µM | 2.22 µM | 3.8 µM | 0.366 µM | 1.49 µM | 0.0771 µM | 0.486 µM | < 0.01 µM | 0.199 µM |
| COc1ccc(/C=C/c2cc(N3CCOCC3)c3cc(F)c(F)cc3n2)cc1OC | 1.68 µM | 14.1 µM | 0.414 µM | 10 µM | 0.653 µM | 14.9 µM | 2.39 µM | 9.89 µM | 1.54 µM | 12.8 µM | 0.31 µM | 10.2 µM | 1.14 µM | 10.2 µM | – | – | 1.36 µM | 10.8 µM | 0.913 µM | 4.29 µM |
